According to ChEMBL document CHEMBL4665624, “Synthesis of 5-(4-(1H-phenanthro[9,10-d]imidazol-2-yl)benzylidene)thiazolidine-2,4-dione as promising DNA and serum albumin-binding agents and evaluation of antitumor activity” (Eur J Med Chem, 2019):

Key:
MCF7 = assay: Antitumor activity against human MCF7 cells assessed as cell growth inhibition at 10 uM incubated for 48 hrs by sulforhodamine B assay; assay type: functional; details: read-out: GI
M14 = assay: Antitumor activity against human M14 cells assessed as cell growth inhibition at 10 uM incubated for 48 hrs by sulforhodamine B assay; assay type: functional; details: read-out: GI
ACHN = assay: Antitumor activity against human ACHN cells assessed as cell growth inhibition at 10 uM incubated for 48 hrs by sulforhodamine B assay; assay type: functional; details: read-out: GI
COLO 205 = assay: Antitumor activity against human COLO205 cells assessed as cell growth inhibition at 10 uM incubated for 48 hrs by sulforhodamine B assay; assay type: functional; details: read-out: GI
RPMI-8226 = assay: Antitumor activity against human RPMI8226 cells assessed as cell growth inhibition at 10 uM incubated for 48 hrs by sulforhodamine B assay; assay type: functional; details: read-out: GI
A498 = assay: Antitumor activity against human A498 cells assessed as cell growth inhibition at 10 uM incubated for 48 hrs by sulforhodamine B assay; assay type: functional; details: read-out: GI
UACC-62 = assay: Antitumor activity against human UACC-62 cells assessed as cell growth inhibition at 10 uM incubated for 48 hrs by sulforhodamine B assay; assay type: functional; details: read-out: GI
Malme-3M = assay: Antitumor activity against human MALME-3M cells assessed as cell growth inhibition at 10 uM incubated for 48 hrs by sulforhodamine B assay; assay type: functional; details: read-out: GI
U-251 = assay: Antitumor activity against human U251 cells assessed as cell growth inhibition at 10 uM incubated for 48 hrs by sulforhodamine B assay; assay type: functional; details: read-out: GI
SF-268 = assay: Antitumor activity against human SF268 cells assessed as cell growth inhibition at 10 uM incubated for 48 hrs by sulforhodamine B assay; assay type: functional; details: read-out: GI
HL-60(TB) = assay: Antitumor activity against human HL-60(TB) cells assessed as cell growth inhibition at 10 uM incubated for 48 hrs by sulforhodamine B assay; assay type: functional; details: read-out: GI
NCI-H522 = assay: Antitumor activity against human NCI-H522 cells assessed as cell growth inhibition at 10 uM incubated for 48 hrs by sulforhodamine B assay; assay type: functional; details: read-out: GI
SF-295 = assay: Antitumor activity against human SF295 cells assessed as cell growth inhibition at 10 uM incubated for 48 hrs by sulforhodamine B assay; assay type: functional; details: read-out: GI
HOP-92 = assay: Antitumor activity against human HOP92 cells assessed as cell growth inhibition at 10 uM incubated for 48 hrs by sulforhodamine B assay; assay type: functional; details: read-out: GI
PC-3 = assay: Antitumor activity against human PC-3 cells assessed as cell growth inhibition at 10 uM incubated for 48 hrs by sulforhodamine B assay; assay type: functional; details: read-out: GI
Hs-578T = assay: Antitumor activity against human HS 578T cells assessed as cell growth inhibition at 10 uM incubated for 48 hrs by sulforhodamine B assay; assay type: functional; details: read-out: GI
MDA-MB-435 = assay: Antitumor activity against human MDA-MB-435 cells assessed as cell growth inhibition at 10 uM incubated for 48 hrs by sulforhodamine B assay; assay type: functional; details: read-out: GI
OVCAR-8 = assay: Antitumor activity against human OVCAR-8 cells assessed as cell growth inhibition at 10 uM incubated for 48 hrs by sulforhodamine B assay; assay type: functional; details: read-out: GI
CCRF-CEM = assay: Antitumor activity against human CCRF-CEM cells assessed as cell growth inhibition at 10 uM incubated for 48 hrs by sulforhodamine B assay; assay type: functional; details: read-out: GI
LOX IMVI = assay: Antitumor activity against human LOX IMVI cells assessed as cell growth inhibition at 10 uM incubated for 48 hrs by sulforhodamine B assay; assay type: functional; details: read-out: GI
SNB-19 = assay: Antitumor activity against human SNB-19 cells assessed as cell growth inhibition at 10 uM incubated for 48 hrs by sulforhodamine B assay; assay type: functional; details: read-out: GI
UO-31 = assay: Antitumor activity against human UO-31 cells assessed as cell growth inhibition at 10 uM incubated for 48 hrs by sulforhodamine B assay; assay type: functional; details: read-out: GI
SR = assay: Antitumor activity against human SR cells assessed as cell growth inhibition at 10 uM incubated for 48 hrs by sulforhodamine B assay; assay type: functional; details: read-out: GI
HCC 2998 = assay: Antitumor activity against human HCC2998 cells assessed as cell growth inhibition at 10 uM incubated for 48 hrs by sulforhodamine B assay; assay type: functional; details: read-out: GI
SK-MEL-28 = assay: Antitumor activity against human SK-MEL-28 cells assessed as cell growth inhibition at 10 uM incubated for 48 hrs by sulforhodamine B assay; assay type: functional; details: read-out: GI
MDA-MB-468 = assay: Antitumor activity against human MDA-MB-468 cells assessed as cell growth inhibition at 10 uM incubated for 48 hrs by sulforhodamine B assay; assay type: functional; details: read-out: GI
OVCAR-4 = assay: Antitumor activity against human OVCAR-4 cells assessed as cell growth inhibition at 10 uM incubated for 48 hrs by sulforhodamine B assay; assay type: functional; details: read-out: GI
786-0 = assay: Antitumor activity against human 786-0 cells assessed as cell growth inhibition at 10 uM incubated for 48 hrs by sulforhodamine B assay; assay type: functional; details: read-out: GI
K562 = assay: Antitumor activity against human K562 cells assessed as cell growth inhibition at 10 uM incubated for 48 hrs by sulforhodamine B assay; assay type: functional; details: read-out: GI
SN12C = assay: Antitumor activity against human SN12C cells assessed as cell growth inhibition at 10 uM incubated for 48 hrs by sulforhodamine B assay; assay type: functional; details: read-out: GI
MDA-MB-231 = assay: Antitumor activity against human MDA-MB-231/ATCC cells assessed as cell growth inhibition at 10 uM incubated for 48 hrs by sulforhodamine B assay; assay type: functional; details: read-out: GI
OVCAR-3 = assay: Antitumor activity against human OVCAR-3 cells assessed as cell growth inhibition at 10 uM incubated for 48 hrs by sulforhodamine B assay; assay type: functional; details: read-out: GI
NCI-H23 = assay: Antitumor activity against human NCI-H23 cells assessed as cell growth inhibition at 10 uM incubated for 48 hrs by sulforhodamine B assay; assay type: functional; details: read-out: GI
NCI-H226 = assay: Antitumor activity against human NCI-H226 assessed as cell growth inhibition at 10 uM incubated for 48 hrs by sulforhodamine B assay; assay type: functional; details: read-out: GI
SW-620 = assay: Antitumor activity against human SW620 cells assessed as cell growth inhibition at 10 uM incubated for 48 hrs by sulforhodamine B assay; details: SW-620, 48 h, read-out: GI
HT-29 = assay: Antitumor activity against human HT-29 cells assessed as cell growth inhibition at 10 uM incubated for 48 hrs by sulforhodamine B assay; assay type: functional; details: read-out: GI
HCT-15 = assay: Antitumor activity against human HCT15 cells assessed as cell growth inhibition at 10 uM incubated for 48 hrs by sulforhodamine B assay; assay type: functional; details: read-out: GI
EKVX = assay: Antitumor activity against human EKVX cells assessed as cell growth inhibition at 10 uM incubated for 48 hrs by sulforhodamine B assay; assay type: functional; details: read-out: GI
BT-549 = assay: Antitumor activity against human BT-549 cells assessed as cell growth inhibition at 10 uM incubated for 48 hrs by sulforhodamine B assay; assay type: functional; details: read-out: GI
NCI-H460 = assay: Antitumor activity against human NCI-H460 assessed as cell growth inhibition at 10 uM incubated for 48 hrs by sulforhodamine B assay; assay type: functional; details: read-out: GI
IGROV-1 = assay: Antitumor activity against human IGROV1 cells assessed as cell growth inhibition at 10 uM incubated for 48 hrs by sulforhodamine B assay; assay type: functional; details: read-out: GI
KM12 = assay: Antitumor activity against human KM12 cells assessed as cell growth inhibition at 10 uM incubated for 48 hrs by sulforhodamine B assay; assay type: functional; details: read-out: GI
SNB-75 = assay: Antitumor activity against human SNB-75 cells assessed as cell growth inhibition at 10 uM incubated for 48 hrs by sulforhodamine B assay; assay type: functional; details: read-out: GI
NCI/ADR-RES = assay: Antitumor activity against human NCI/ADR-RES cells assessed as cell growth inhibition at 10 uM incubated for 48 hrs by sulforhodamine B assay; assay type: functional; details: read-out: GI
RXF 393 = assay: Antitumor activity against human RXF 393 cells assessed as cell growth inhibition at 10 uM incubated for 48 hrs by sulforhodamine B assay; assay type: functional; details: read-out: GI
HCT-116 = assay: Antitumor activity against human HCT116 cells assessed as cell growth inhibition at 10 uM incubated for 48 hrs by sulforhodamine B assay; assay type: functional; details: read-out: GI
MOLT-4 = assay: Antitumor activity against human MOLT4 cells assessed as cell growth inhibition at 10 uM incubated for 48 hrs by sulforhodamine B assay; assay type: functional; details: read-out: GI
SK-OV-3 = assay: Antitumor activity against human SK-OV-3 cells assessed as cell growth inhibition at 10 uM incubated for 48 hrs by sulforhodamine B assay; assay type: functional; details: read-out: GI

Oc1ccccc1-c1nc2c3ccccc3c3ccccc3c2o1 showed an inhibition of growth at 10 µM (MCF7) of 37.6%, an inhibition of growth at 10 µM (M14) of under 10% and an inhibition of growth at 10 µM (ACHN) of under 10%. The inhibition of growth at 10 µM (COLO 205) was 14.3%, the inhibition of growth at 10 µM (RPMI-8226) was 24.5% and the inhibition of growth at 10 µM (A498) was under 10%. It also gave an inhibition of growth at 10 µM (UACC-62) of 11.6%, an inhibition of growth at 10 µM (Malme-3M) of under 10% and an inhibition of growth at 10 µM (U-251) of 18%. The inhibition of growth at 10 µM (SF-268) was 10.2%, the inhibition of growth at 10 µM (HL-60(TB)) was 12% and the inhibition of growth at 10 µM (NCI-H522) was under 10%. The inhibition of growth at 10 µM (SF-295) was under 10%, the inhibition of growth at 10 µM (HOP-92) was 16.2% and the inhibition of growth at 10 µM (PC-3) was 22.2%. The inhibition of growth at 10 µM (Hs-578T) was 10.5%, the inhibition of growth at 10 µM (MDA-MB-435) was under 10% and the inhibition of growth at 10 µM (OVCAR-8) was 11%. For the same compound, the inhibition of growth at 10 µM (CCRF-CEM) was 17.9%, the inhibition of growth at 10 µM (LOX IMVI) was under 10% and the inhibition of growth at 10 µM (SNB-19) was under 10%. It also gave an inhibition of growth at 10 µM (UO-31) of 39%, an inhibition of growth at 10 µM (SR) of 26.3% and an inhibition of growth at 10 µM (HCC 2998) of under 10%. The inhibition of growth at 10 µM (SK-MEL-28) was under 10%, the inhibition of growth at 10 µM (MDA-MB-468) was 17% and the inhibition of growth at 10 µM (OVCAR-4) was 23.6%. The inhibition of growth at 10 µM (786-0) was under 10%, the inhibition of growth at 10 µM (K562) was 11.9% and the inhibition of growth at 10 µM (SN12C) was 17%. It also gave an inhibition of growth at 10 µM (MDA-MB-231) of 18.3%, an inhibition of growth at 10 µM (OVCAR-3) of under 10% and an inhibition of growth at 10 µM (NCI-H23) of 14.5%. For the same compound, the inhibition of growth at 10 µM (NCI-H226) was 14.2%, the inhibition of growth at 10 µM (SW-620) was 31.6% and the inhibition of growth at 10 µM (HT-29) was under 10%. It also gave an inhibition of growth at 10 µM (HCT-15) of under 10%, an inhibition of growth at 10 µM (EKVX) of 21.2% and an inhibition of growth at 10 µM (BT-549) of under 10%. For the same compound, the inhibition of growth at 10 µM (NCI-H460) was 30.4%, the inhibition of growth at 10 µM (IGROV-1) was 25.9% and the inhibition of growth at 10 µM (KM12) was under 10%. It also gave an inhibition of growth at 10 µM (SNB-75) of 10.3%, an inhibition of growth at 10 µM (NCI/ADR-RES) of under 10% and an inhibition of growth at 10 µM (RXF 393) of under 10%. It also gave an inhibition of growth at 10 µM (HCT-116) of 19.2%, an inhibition of growth at 10 µM (MOLT-4) of under 10% and an inhibition of growth at 10 µM (SK-OV-3) of under 10%.
